# Measurements: the OPERA property sets (Mansouri et al. 2018)
# Conditions: 22.0 °C
row,SMILES,log10 OH rate constant (cm³/molecule/s)
1,FC(Cl)C(F)(F)C(F)(F)Cl (centres undefined),-14.1
2,C1=Cc2ccccc2C1,-10.3
3,CCCCSCCCC,-10.4

# Same assay, conditions: 23.0 °C
row,SMILES,log10 OH rate constant (cm³/molecule/s)
1,FC(F)(Br)C(F)(F)Br,< -15.9
2,C[C@@H]1CC[C@@H]2C[C@H]1C2(C)C,-10.9
3,CC1(C)C2CC3C(C2)C31C,-11.5

# Same assay, conditions: 24.0 °C
row,SMILES,log10 OH rate constant (cm³/molecule/s)
1,FC(F)(Br)Br,< -15.2

# Same assay, conditions: 25.0 °C
row,SMILES,log10 OH rate constant (cm³/molecule/s)
1,CSC,-11.3
2,C1C2C3C2C2C1C32 (centres undefined),-11.7
3,C,-14.2
4,CC[N+](=O)[O-],-12.8
5,O=[N+]([O-])C1=CCCCC1,-10.4
6,CCCCO[N+](=O)[O-],-11.8
7,CC#N,-13.6
8,COS(=O)(=O)OC,< -12.3
9,CC(C)(C)OO,-11.5
10,CON=O,-12.7
11,C=CC[N+](=O)[O-],-10.9
12,FC(F)(F)C(F)(F)C(Cl)Cl,-13.6
13,FC(Br)(Br)Br,< -15
14,CCCl,-12.4
15,FC(F)(F)Br,< -16
16,C=C[N+](=O)[O-],-11.9
17,CCON=O,-12.2
18,CCCCCCCCCCCC,-10.8
19,CCCCCCCCO,-10.8
20,FC(Cl)(Cl)Cl,< -15.3
21,CCCCON=O,-11.6
22,CCOCC,-10.9
